From BindingDB's records for doi:10.1016/0960-894X(96)00057-1 (1996)

Legend:
[1] = Compound was tested for inhibition of HL60 cell adhesion to recombinant P-selectin-IgG fusion protein obtained from transfected COS cells
[2] = as above; remark: listed apart in the source

SMILES: CC(=O)N[C@@H]1[C@H](OCCCCCC/N=C(S)/N=C2\C=CC(=C3c4ccc(O)cc4Oc4cc(O)ccc43)C(C(=O)O)=C2)O[C@@H](CO)[C@@H](O[C@@H]2O[C@@H](CO)[C@H](O)[C@H](O[C@]3(C(=O)O)C[C@@H](O)[C@@H](NC(C)=O)[C@H]([C@H](O)[C@H](O)CO)O3)[C@@H]2O)[C@@H]1O[C@@H]1O[C@@H](C)[C@@H](O)[C@H](O)[C@@H]1O
- IC50 [1]: 900 µM

SMILES: CC(=O)N[C@@H]1[C@H](OCCCCCCNC(=O)CCC(=O)O)O[C@@H](CO)[C@@H](O[C@@H]2O[C@@H](CO)[C@H](O)[C@H](O[C@]3(C(=O)O)C[C@@H](O)[C@@H](NC(C)=O)[C@H]([C@H](O)[C@H](O)CO)O3)[C@@H]2O)[C@@H]1O[C@@H]1O[C@@H](C)[C@@H](O)[C@H](O)[C@@H]1O [Sialyl-LewisX Conjugate]
- IC50 [2]: 1500 µM

SMILES: CC(=O)N[C@@H]1[C@H](OCCCCCCNC(=O)[C@H]2CC[C@H](CN3C(=O)C=CC3=O)CC2)O[C@@H](CO)[C@@H](O[C@@H]2O[C@@H](CO)[C@H](O)[C@H](O[C@]3(C(=O)O)C[C@@H](O)[C@@H](NC(C)=O)[C@H]([C@H](O)[C@H](O)CO)O3)[C@@H]2O)[C@@H]1O[C@@H]1O[C@@H](C)[C@@H](O)[C@H](O)[C@@H]1O [Sialyl-LewisX Conjugate]
- IC50 [2]: 380 µM

SMILES: CC(=O)N[C@H]1[C@H]([C@H](O)[C@H](O)CO)O[C@@](O[C@@H]2[C@H](O)[C@H](O[C@H]3[C@H](O[C@@H]4O[C@@H](C)[C@@H](O)[C@H](O)[C@@H]4O)[C@H](NC(C)=O)[C@H](NC(=O)[C@H](C)NC(=O)[C@H](CC(=O)O)NC(=O)CNC(=O)[C@@H](N)CCCN=C(N)N)O[C@H]3CO)O[C@@H](CO)[C@@H]2O)(C(=O)O)C[C@H]1O
- IC50 [1]: 26 µM
